This assay deals with BDF1 mice, P388 leukemia ip, median survival T/C. Nature of the assay: NCI In Vivo Anticancer Drug Screen. Data for tumor model P388 Leukemia (intraperitoneal) in B6D2F1 (BDF1) mice. As to conditions: endpoint: median survival time, higher = longer survival. A digest of the protocol: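 Steps: implant the tumour, treat one group with compound and another with vehicle, record survival, then divide treated by control.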

Where [1] appears, read: dose: 50.0 mg/kg/injection, schedule: Q01DX009 (ip), vehicle: saline with Tween-80.
Setting [2] is: dose: 100.0 mg/kg/injection, schedule: Q01DX009 (ip), vehicle: saline with Tween-80.
The mark [3] stands for this setting: dose: 200.0 mg/kg/injection, schedule: Q01DX009 (ip), vehicle: saline with Tween-80.
Where [4] appears, read: dose: 25.0 mg/kg/injection, schedule: Q01DX009 (ip), vehicle: saline with Tween-80.
[5] abbreviates: dose: 12.5 mg/kg/injection, schedule: Q01DX009 (ip), vehicle: saline with Tween-80.
[6] abbreviates: dose: 6.25 mg/kg/injection, schedule: Q01DX009 (ip), vehicle: saline with Tween-80.
The mark [7] stands for this setting: dose: 100.0 mg/kg/injection, schedule: Q04DX003 (ip), vehicle: saline.
Setting [8] is: dose: 200.0 mg/kg/injection, schedule: Q04DX003 (ip), vehicle: saline.
The mark [9] stands for this setting: dose: 400.0 mg/kg/injection, schedule: Q04DX003 (ip), vehicle: saline.
[10] abbreviates: dose: 200.0 mg/kg/injection, schedule: Q01DX001 (ip), vehicle: saline.
[11] abbreviates: dose: 100.0 mg/kg/injection, schedule: Q04DX003 (ip), vehicle: Klucel (hydroxypropylcellulose) (HPC).
Where [12] appears, read: dose: 200.0 mg/kg/injection, schedule: Q04DX003 (ip), vehicle: Klucel (hydroxypropylcellulose) (HPC).
Where [13] appears, read: dose: 400.0 mg/kg/injection, schedule: Q04DX003 (ip), vehicle: Klucel (hydroxypropylcellulose) (HPC).

Structures are written as SMILES. Several values for one entry are separate records, joined by “and”; a condition that tells them apart may be missing. Equal entries are not always repeated. Toxic doses and inconclusive results are not listed.

Consider `COc1ccc(CCn2nnc3ccccc3c2=O)cc1OC`, for which the T/C runs as follows: under setting [1], 98 % of control; under setting [2], 99 % of control; under setting [3], 105 % of control.
Take `CCOC(=S)SCC(=O)Nc1ccccc1`: the T/C is, setting by setting: under setting [4], 93 % of control; under setting [1], 90 % of control; under setting [2], 103 % of control.
On to `Nc1ccc(S(=O)(=O)Nc2ccc([N+](=O)[O-])cc2)cc1`, for which the T/C reads like this: under setting [5], 87 % of control; under setting [4], 96 % of control and 105 % of control; (dose: 25.0 mg/kg/injection, schedule: Q04DX003 (ip), vehicle: saline with Tween-80) 102 % of control; under setting [1], 89 % of control; (dose: 50.0 mg/kg/injection, schedule: Q04DX003 (ip), vehicle: saline with Tween-80) 99 % of control; under setting [2], 87 % of control and 93 % of control. Besides, the T/C was 105 % of control (dose: 100.0 mg/kg/injection, schedule: Q04DX003 (ip), vehicle: saline with Tween-80); 112 % of control (dose: 200.0 mg/kg/injection, schedule: Q04DX003 (ip), vehicle: saline with Tween-80); 114 % of control (dose: 400.0 mg/kg/injection, schedule: Q04DX003 (ip), vehicle: saline with Tween-80).
With `O=[N+]([O-])/C=C/c1ccc(O)cc1`, the T/C is 100 % of control under setting [6], 102 % of control under setting [5], 110 % of control under setting [4] and 107 % of control under setting [1].
Take `CCC(SC(CC(=O)O)C(=O)O)C(=O)O` (configuration not stated): the T/C is, setting by setting: (dose: 12.5 mg/kg/injection, schedule: Q01DX001 (ip), vehicle: saline with Tween-80) 100 % of control; (dose: 25.0 mg/kg/injection, schedule: Q01DX001 (ip), vehicle: saline with Tween-80) 99 % of control; (dose: 50.0 mg/kg/injection, schedule: Q01DX001 (ip), vehicle: saline with Tween-80) 90 % of control.
As to `CC(C)CCCC(C)C1CCC2C3CC=C4CC([Se][As](C)C)CCC4(C)C3CCC12C` (configuration not stated), the T/C runs as follows: under setting [1], 118 % of control; under setting [2], 111 % of control.
Regarding `CC(=O)[C@H]1[C@H](O)C[C@H]2[C@@H]3CCC4=CC(=O)CC[C@]4(C)[C@@]3(F)[C@@H](O)C[C@@]21C`, the T/C under setting [7] was 100 % of control, the T/C under setting [8] was 113 % of control and the T/C under setting [9] is 113 % of control.
Regarding `O=S(=O)(O)c1ccncc1`, the T/C is 116 % of control (dose: 100.0 mg/kg/injection, schedule: Q01DX001 (ip), vehicle: saline); 104 % of control under setting [10]; 87 % of control (dose: 400.0 mg/kg/injection, schedule: Q01DX001 (ip), vehicle: saline).
In the case of `O=C(Nc1ccc(NC(=O)Nc2cccc(C3=NCCN3)c2)cc1)Nc1cccc(C2=NCCN2)c1`, the T/C was 165 % of control and 190 % of control (dose: 60.0 mg/kg/injection, schedule: Q01DX010 (ip), vehicle: saline); 160 % of control and 175 % of control (dose: 120.0 mg/kg/injection, schedule: Q01DX010 (ip), vehicle: saline); 175 % of control and 190 % of control (dose: 240.0 mg/kg/injection, schedule: Q01DX010 (ip), vehicle: saline); 250 % of control and 300 % of control (dose: 480.0 mg/kg/injection, schedule: Q01DX010 (ip), vehicle: saline).
For `Cc1cccc(Br)[n+]1[O-]`, the T/C runs as follows: (dose: 25.0 mg/kg/injection, schedule: Q01DX009 (ip), vehicle: saline) 90 % of control; (dose: 25.0 mg/kg/injection, schedule: Q04DX003 (ip), vehicle: saline) 95 % of control; (dose: 50.0 mg/kg/injection, schedule: Q01DX001 (ip), vehicle: saline) 100 % of control; (dose: 100.0 mg/kg/injection, schedule: Q01DX009 (ip), vehicle: saline) 95 % of control; under setting [7], 95 % of control; under setting [10], 100 % of control.
On to `Cc1cnc(C#N)c(-n2ccnc2)n1`, for which the T/C was 92 % of control (dose: 12.5 mg/kg/injection, schedule: Q01DX009 (ip), vehicle: water); 100 % of control (dose: 25.0 mg/kg/injection, schedule: Q01DX009 (ip), vehicle: water); 95 % of control (dose: 50.0 mg/kg/injection, schedule: Q01DX009 (ip), vehicle: water); 100 % of control (dose: 100.0 mg/kg/injection, schedule: Q01DX009 (ip), vehicle: water); 101 % of control (dose: 200.0 mg/kg/injection, schedule: Q01DX009 (ip), vehicle: water).
In the case of `CCOC(=O)c1ccc(NC(=O)CCl)cc1`, the T/C by setting is: (dose: 6.25 mg/kg/injection, schedule: Q01DX010 (ip), vehicle: saline) 104 % of control; (dose: 12.5 mg/kg/injection, schedule: Q01DX010 (ip), vehicle: saline) 100 % of control; (dose: 25.0 mg/kg/injection, schedule: Q01DX010 (ip), vehicle: saline) 100 % of control; (dose: 50.0 mg/kg/injection, schedule: Q01DX010 (ip), vehicle: saline) 100 % of control.
For the compound `c1ccc(C2=C(c3ccccc3)C23SCCS3)cc1`, the T/C is, setting by setting: (dose: 100.0 mg/kg/injection, schedule: Q01DX009 (ip), vehicle: Klucel (hydroxypropylcellulose) (HPC)) 113 % of control; under setting [11], 104 % of control; (dose: 200.0 mg/kg/injection, schedule: Q01DX009 (ip), vehicle: Klucel (hydroxypropylcellulose) (HPC)) 95 % of control; under setting [12], 113 % of control; (dose: 400.0 mg/kg/injection, schedule: Q01DX009 (ip), vehicle: Klucel (hydroxypropylcellulose) (HPC)) 86 % of control; under setting [13], 100 % of control.
For the compound `C[n+]1c(/C=N/NC(N)=S)ccc2ccccc21`, the T/C was 97 % of control under setting [4], 106 % of control under setting [1] and 113 % of control under setting [2].
Take `Clc1[nH]nc2ccccc12`: the T/C is 91 % of control under setting [5]; 87 % of control under setting [4]; 95 % of control under setting [1]; 90 % of control (dose: 50.0 mg/kg/injection, schedule: Q04DX003 (ip), vehicle: saline sonified); 100 % of control under setting [2]; 90 % of control (dose: 100.0 mg/kg/injection, schedule: Q04DX003 (ip), vehicle: saline sonified). The T/C (dose: 200.0 mg/kg/injection, schedule: Q04DX003 (ip), vehicle: saline sonified) is 90 % of control.
For `CC(C)(C)c1ccc(Sc2cccc3c2C(=O)c2ccccc2C3)cc1`, the T/C runs as follows: under setting [1], 92 % of control; under setting [2], 89 % of control; under setting [3], 89 % of control.
Regarding `CC(C)/[N+]([O-])=C/C=C/c1ccccc1`, the T/C is, setting by setting: under setting [11], 100 % of control; under setting [12], 100 % of control; under setting [13], 113 % of control.
As to `NC(=S)/N=C\C(CC(O)C(O)C(O)CO)=N\NC(N)=S` (configuration not stated), the T/C runs as follows: under setting [6], 88 % of control and 97 % of control and 100 % of control; under setting [5], 99 % of control and 100 % of control and 108 % of control; under setting [1], 97 % of control and 115 % of control.
Turning to `CC(=O)CC(C)=O.CC(=O)CC(C)=O.CC(=O)CC(C)=O.[Cr]`, the T/C runs as follows: under setting [7], 90 % of control; under setting [8], 90 % of control; under setting [9], 90 % of control.
